# Values of other authors, collected in article PMC8287028 (Frontiers in Veterinary Science, 2021).
# Test system: Factor Xa
# Set-up: method as in PMID 35442563
# Conditions: 19 sick dogs, post-treatment monitoring; cited from earlier work
smiles,measurement,value
O=C(NC[C@H]1CN(c2ccc(N3CCOCC3=O)cc2)C(=O)O1)c1ccc(Cl)s1 [rivaroxaban],dogs with aXa activities below the range associated with positive clinical outcomes in humans,8/19
same,dogs with aXa activities exceeding the range associated with positive clinical outcomes in humans,8/19
